Measured values: US20210024483A1, “HETEROCYLCOALKENYL DERIVATIVES USEFUL AS AGONISTS OF THE GPR120 AND / OR GPR40” (Janssen Pharmaceutica NV, priority 2018, published 2021)

Molecular target: T1, Human GPR120 short form (short splice variant, NM_001195755.1) (Homo sapiens, UniProt Q5NUL3)
T1 construct: expressed in transfected cells; host or cells: HEK293
T1 sequence (Q5NUL3 1-361): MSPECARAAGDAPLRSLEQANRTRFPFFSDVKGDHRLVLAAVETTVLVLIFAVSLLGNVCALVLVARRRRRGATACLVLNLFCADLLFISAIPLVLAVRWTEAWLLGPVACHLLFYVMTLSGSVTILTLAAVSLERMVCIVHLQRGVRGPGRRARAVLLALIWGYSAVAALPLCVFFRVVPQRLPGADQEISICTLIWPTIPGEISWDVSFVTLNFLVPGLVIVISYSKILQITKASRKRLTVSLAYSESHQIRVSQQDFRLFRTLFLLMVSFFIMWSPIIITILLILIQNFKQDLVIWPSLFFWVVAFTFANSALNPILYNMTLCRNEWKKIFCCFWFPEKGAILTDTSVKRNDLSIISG
Assay: Human GPR120 Calcium Flux Assay
Assay type: cell-based
Conditions: HEK-293 cells, 4200 cells/well, read-out: Human GPR120 Calcium Flux Assay Procedure B EC50
How it was run: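 HEK293 cells stably expressing human GPR120 short form were starved 1 h and loaded with Fluo-4 NW dye with probenecid. Compound-induced calcium flux was read on FLIPR for 300 s, with the response taken as max minus min RFU. EC50 came from sigmoidal variable-slope fits.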

EC50: 110 nM
Structure (SMILES): Cc1c(CCC(=O)O)ccc(OCC2=C(c3ccc(Cl)cc3)COCC2)c1C [ID No. 745, 3-[4-[[5-(4-chlorophenyl)-3,6-dihydro-2H-pyran-4-yl]methoxy]-2,3-dimethyl-phenyl]propanoic acid]
